target: Substance-P receptor (Homo sapiens, UniProt P25103); assay: Tested against cloned human NK1 receptor by displacement of 125 I -labeled substance P expressed in CHO cells; format: cell-based
Sequence (P25103 whole entry): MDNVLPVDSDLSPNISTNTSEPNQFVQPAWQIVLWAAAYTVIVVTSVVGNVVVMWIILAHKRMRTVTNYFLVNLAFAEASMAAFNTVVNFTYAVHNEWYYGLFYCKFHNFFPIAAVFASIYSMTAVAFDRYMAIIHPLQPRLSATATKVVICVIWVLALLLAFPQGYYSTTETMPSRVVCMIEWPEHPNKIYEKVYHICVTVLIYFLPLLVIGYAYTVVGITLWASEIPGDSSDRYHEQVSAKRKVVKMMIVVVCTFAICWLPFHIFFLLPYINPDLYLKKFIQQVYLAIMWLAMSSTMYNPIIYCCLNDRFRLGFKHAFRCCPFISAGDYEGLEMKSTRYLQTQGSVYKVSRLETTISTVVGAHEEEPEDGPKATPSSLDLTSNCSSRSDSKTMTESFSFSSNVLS

IC50 | Structure (SMILES)
413 nM | CC(C)(C)OC(=O)N[C@@H](Cc1c[nH]c2ccccc12)C(=O)OCc1ccccc1
280 nM | COc1ccccc1COC(=O)[C@H](Cc1c[nH]c2ccccc12)NC(=O)OC(C)(C)C
> 10000 nM | N[C@@H](Cc1c[nH]c2ccccc12)C(=O)OCc1ccccc1
125 nM | Cc1cc(C)cc(COC(=O)[C@H](Cc2c[nH]c3ccccc23)[N+](C)(C)C)c1
1530 nM | Cc1cc(C)cc(COC(=O)[C@@H](N)Cc2c[nH]c3ccccc23)c1
67 nM | CC(=O)N[C@@H](Cc1c[nH]c2ccccc12)C(=O)OCc1cc(C)cc(C)c1 [L-708568]

Structure (SMILES) | IC50
Cc1cc(C)cc(COC(=O)[C@H](Cc2c[nH]c3ccccc23)N(C)C)c1 | 553 nM

From ChEMBL document CHEMBL1126935, “N-acyl-L-tryptophan benzyl esters: potent substance P receptor antagonists” (J Med Chem, 1993)
